One data set deals with C. albicans. As to the kind of experiment: microbe, parasite or virus in culture. Format: cell-based, Candida albicans (ATCC 10231). An excerpt: (§1) These standard strains of Escherichia coli (E. coli, ATCC 8739), Staphylococcus aureus (S. aureus, ATCC 6538), Pseudomonas aeruginosa (P. aeruginosa, ATCC 27853), Acinetobacter baumannii (A. baumannii, ATCC 1968), Candida albicans (ATCC 10231), and the clinical strain of Methicillin-resistant Staphylococcus aureus (MRSA, MRSA-Z) were obtained from Kunming Medical University. The standard strain of C. neoformans (ATCC 32045) was purchased from Shanghai Yingxin Laboratory Co., Ltd. (CAS NO. YXJ50058). Different strains of E. coli, S. aureus, MRSA, P. aeruginosa, and A. baumannii were cultured with shaking at 37 °C in Luria–Bertani (LB) medium. C. neoformans was cultured at 35 °C in Sabouraud Dextrose Agar (SDA) medium according to the manufacturer’s instructions.
(§2) According to Clinical and Laboratory Standards Institute (CLSI) protocols, the minimum inhibitory concentration (MIC) is the minimum drug concentration at which antibiotics inhibit the growth and reproduction of strains. The different strains were grown in their corresponding media at 35 °C or 37 °C until they entered the exponential growth phase. Fluconazole and amphotericin B were used as positive controls, and sterile 0.9% NaCl was used as a negative control. The peptides were diluted to various concentrations in sterile saline. According to 1 OD = 1 × 10^9 CFU/mL, the above bacterial solution was diluted to 2 × 10^5 CFU/mL with the corresponding medium. In advance, 100 μL of normal saline was added to a sterile 96-well plate, and 200 μL of the sample to be tested was added to the first well. The sample to be tested was subjected to double gradient dilution, and then 100 μL of bacterial solution with a concentration of 2 × 10^5 was added to each well. It was cultured at 35 °C or 37 °C for different times. The light absorption value of the bacterial solution at 600 nm was detected by a microplate reader (Epoch Etock, Biotek, Winooski, VT, USA), and the average concentration of the samples in the pores and adjacent pores that could not detect microbial growth was used as the MIC value.

In a further data set the test system is C. neoformans ATCC 32045. As to the kind of experiment: Transmission electron microscopy of treated cells. The following applies: 1 × MIC (0.81 μM), 12 h, 37 °C. Format: cell-based, Cryptococcus neoformans. As for the experimental part: The suspension of C. neoformans ATCC 32045 was prepared and then centrifuged at 3500 rpm for 5 min. The supernatant was discarded, and sterile normal saline was added for washing. That is, the above operation was repeated three times and re-suspended. […] The positive control, including the concentration of fluconazole and amphotericin, was 1 × MIC. The negative control was added with the same volume of sterile normal saline. After the sample was added to the fungal solution, it was incubated in an incubator at 37 °C for 12 h, and then centrifuged at 1000 rpm for 10 min. The supernatant was discarded, and osmium tetroxide was slowly added along the tube wall for fixation and fixed at 4 °C for 3 h. Gradient ethanol was used for dehydration, infiltration, and embedding. Finally, ultrathin sections were performed. After the above operation, the morphological changes in C. neoformans were observed by TEM (Tecnai G2 Spirit, FEI, Eindhoven, Holland) and photographed.

The next data set has as its system MRSA. Briefly: microbe, parasite or virus in culture. It counts as cell-based.
From the text: as §1, §2

The subject of another data set is trypsin. Briefly: in vitro. Format: in vitro ADME. How it is done:
(§3) For investigating the impact of protease on blap-6, trypsin and chymotrypsin were chosen as the enzymes to be studied in the experiment. […] Then these samples (including blap-6 as a standard) were detected by high-performance liquid chromatography (HPLC, Waters, Milford, MA, USA) on a C18 column (4.6 mm × 250 mm, Waters, USA). Solvent A was ultrapure water, and solvent B was acetonitrile. The flow rate was 0.5 mL/min, and the detection wavelength was 280 nm. The column was balanced with 95% solvent A in 0-3 min and eluted with 95-40% solvent A in 3-10 min, 40-5% solvent A in 10-15 min, and 5-95% solvent A in 15-20 min. The degradation rate was calculated by the peak area of the HPLC.

Another data set in a line: in vitro. Format: in vitro ADME. How it is done: as §3
The subject of data set [1] is C. neoformans ATCC 32045 biofilm. Briefly: Biofilm inhibition (crystal violet). It counts as cell-based, Cryptococcus neoformans. Conditions: 1 × MIC, 48 h, 37 °C, A600, dose-dependent. How it is done: The single colony of C. neoformans ATCC 32045 was selected and cultured at 180 rpm and 37 °C. The physiological saline was washed three times and then re-suspended. The fungal concentration was adjusted to 1 × 10^6 CFU/mL, and then 100 μL of the fungal solution was added to each hole in the 96-well plate. The samples to be tested were diluted with sterile saline to 0.5×, 1×, 2×, 4×, and 8 × MIC, and 100 μL was added to the 96-well plate and mixed well. Three replicate wells were set for each concentration. The negative control group was added to the same volume of sterile saline. The positive control group was added with 10 μM fluconazole and amphotericin B, respectively, and the above group was incubated in a 37 °C incubator for 48 h. After that, the supernatant was discarded and washed with sterile PBS three times, 1 min each time. And then, 99% methanol was added and fixed for 5 min. After staining with 100 μL 0.1% crystal violet for 5 min, the plate was washed with PBS, and 100 μL 95% ethanol was added. The absorbance at 600 nm was detected by a microplate reader.

The next data set deals with A. baumannii. As to the kind of experiment: microbe, parasite or virus in culture. Format: cell-based, Acinetobacter baumannii (ATCC 1968).
From the text: as §1, §2

Data set [2] concerns C. neoformans ATCC 32045 pre-formed biofilm. Briefly: Biofilm eradication (crystal violet). It counts as cell-based, Cryptococcus neoformans. The following applies: 1 × MIC, 48 h pre-formed biofilm, 48 h treatment, A600. How it is done: The single colony of C. neoformans ATCC 32045 was picked and cultured at 180 rpm and 37 °C. After washing with normal saline three times and being resuspended, the concentration of the fungal solution was adjusted to 1 × 10^6 CFU/mL and then added to a 96-well plate. Each well was incubated at 37 °C for 48 h. The fungal solution was discarded and washed three times with PBS for 1 min each time. The sample to be tested was diluted with normal saline to 0.5×, 1×, 2×, 4× and 8 × MIC, and 200 μL was added to the 96-well plate, respectively. Each concentration was set to three replicate wells, and the negative control group was added with the same volume of sterile normal saline. In the positive control group, 10 μM fluconazole and 10 μM amphotericin B were added and incubated at 37 °C for 48 h. After that, the supernatant was discarded and washed three times with sterile PBS for 1 min each time. And then, 99% methanol was added and fixed for 5 min. Methanol was removed and dried under the ultra-clean bench. After staining with 100 μL 0.1% crystal violet for 5 min, wash the plate with PBS, dry, and add 100 μL 95% ethanol. The absorbance at 600 nm was detected by a microplate reader.

Where no end group is shown, it is not given here.

For orientation: half-life means how long it takes for the measured level to halve. A lower half-life goes with fast loss.

As to KRCRFRIYRWGFPRRRF [blap-6], the MIC in the data set on C. albicans was 1.22 µM; in the data set on MRSA it was 4.89 µM; in the data set with A. baumannii, 19.54 µM. The “cell morphology by TEM” value in the data set on C. neoformans ATCC 32045 was “severe disruption of the structural and cellular morphology”. Further, the degradation with trypsin entry in the data set on trypsin is reported as “began to degrade”. In addition, the half-life at 2.44 mg/mL in the data set “in vitro” (isolated enzyme chymotrypsin) was around 5 h; in the data set “in vitro” (isolated enzyme trypsin), around 6 h. Besides, the metabolised at 1 h, 2.44 mg/mL in the data set “in vitro” (isolated enzyme chymotrypsin) stood at 19%. In the data set “in vitro” (isolated enzyme several chymotrypsin trypsin), the metabolised at 24 h, 2.44 mg/mL stood at 90%. In data set [1], the “inhibition of biofilm formation” value is recorded as “significantly inhibited”. Also, the “eradication of pre-formed biofilm” value in data set [2] is “ability to remove pre-formed C. neoformans biofilm”.

Source of the values: article PMC11121495, “Blap-6, a Novel Antifungal Peptide from the Chinese Medicinal Beetle Blaps rhynchopetera against Cryptococcus neoformans” (International Journal of Molecular Sciences, 2024).
